Source: US20240309015A1, “Methods for the Treatment of Fibrotic Disease” (SHY Therapeutics, LLC, priority 2021, published 2024)

How the values were obtained:
KRas wild type = assay: Ras GTP Binding Domain Inhibition Assay, KRas wild type; conditions: at 20 μM; for KRas wild type + SOS: % inh.: with SOS; for KRas wild type: % inh.: without SOS
Protocol: (§1) A Ras Superfamily Activity Assay (as disclosed in International Application No. PCT/US2018/038613, filed Jun. 20, 2018, which is incorporated by reference in its entirety) was used as a specific assay to evaluate compounds against the following for the following Ras Superfamily proteins: KRas wild type, KRas Q61H mutant, KRas G12C mutant, KRas G12D mutant, Rac-1, and Rho-A.
(§2) Buffer-I: • 25 mM Tris-HCl, pH 7.4 • 27 mM KCl • 137 mM NaCl • 1 mM MgCl2 • 1 mM DTT
(§3) Buffer-IL: • 50 mM Tris-HCl, pH 7.0 • 1 mM MgCl2 • 1 mM DTT
(§4) The small GTPases proteins: KRas wild type. KRas Q61H mutant, KRas G12C mutant, KRas G12D mutants, Rac-1, and Rho-A were expressed as His-tagged proteins. In addition, the Guanosine nucleotide Exchange Factor (GEF) Sos protein (residues 556-1049) was expressed as a His-tagged protein. In cells, the guanine nucleotide exchange factor Sos protein promotes activation of Ras proteins by stimulating an exchange of GDP for GTP. The inclusion of Sos to the Ras GTP binding domain inhibition assay may be considered as an alternative representation of physiological cellular conditions for evaluating the inhibitory activity of some of the tested small molecules.
(§5) For the assay, all purified small GTPases proteins were diluted in Buffer-I or Buffer-II to a final concentration of 10-30 μg/mL. 200 μL of each diluted protein was added to a nickel-coated 96-well plate and incubated overnight at 4° C. Then the protein solution was discarded and 200 μL of Buffer-I or Buffer-II was added to each well in the presence of 1% DMSO. Compounds to be tested were added to the protein-coated wells at final concentration of 20 μM, and incubated for 3 hours at room temperature with and without 10-30 μg/mL of Sos added to the final hour of the incubation. When performing IC50 measurements a serial dilution of all tested concentrations was added. Then Cy3-GTP or Cy5-GTP was added to each well to a final concentration of 100 nM. The labeled GTP was incubated for 45 minutes at room temperature. Following GTP incubation, wells were washed 3× in Buffer-I or Buffer-II and 200 μL of Buffer-I or Buffer-II was added to each well. Following washes, the amount of bound labeled-GTP was measured using a SpectraMax M3 (Molecular Devices).

Rho-A = assay: Ras GTP Binding Domain Inhibition Assay, Rho-A; conditions: at 20 μM; for Rho-A: % inh.: without SOS; for Rho-A + SOS: % inh.: with SOS
Protocol: as §1, §2, §3, §4, §5

KRas G12C mutant = assay: Ras GTP Binding Domain Inhibition Assay, KRas G12C mutant; conditions: at 20 μM; for KRas G12C mutant: % inh.: without SOS; for KRas G12C mutant + SOS: % inh.: with SOS
Protocol: as §1, §2, §3, §4, §5

KRas G12D mutant = assay: Ras GTP Binding Domain Inhibition Assay, KRas G12D mutant; conditions: at 20 μM; for KRas G12D mutant + SOS: % inh.: with SOS; for KRas G12D mutant: % inh.: without SOS
Protocol: as §1, §2, §3, §4, §5

Compound	KRas wild type + SOS: % inh. (KRas wild type)	KRas wild type: % inh. (KRas wild type)	Rho-A: % inh. (Rho-A)	KRas G12C mutant: % inh. (KRas G12C mutant)	KRas G12D mutant + SOS: % inh. (KRas G12D mutant; Table 7)	KRas G12D mutant + SOS: % inh. (KRas G12D mutant; Table 8)	KRas G12D mutant: % inh. (KRas G12D mutant; Table 7)	KRas G12D mutant: % inh. (KRas G12D mutant; Table 8)	Rho-A + SOS: % inh. (Rho-A)	KRas G12C mutant + SOS: % inh. (KRas G12C mutant)
COCCNc1nc(-c2nccn2C)nc2sc(-c3ccccc3)c(-c3ccccc3)c12 [Compound 1, N-(2-Methoxyethyl)-2-(1-methyl-1H-imidazol-2-yl)-5,6-diphenylthieno[2,3-d]pyrimidin-4-amine]	A (A = 1-25% inhibition)	A (A = 1-25% inhibition)	C (C = 46-75% inhibition)	C (C = 46-75% inhibition)	A (A = 1-25% inhibition)	A (A = 1-25% inhibition)	D (D = 76-100% inhibition)	D (D = 76-100% inhibition)	–	–
COCCN(C)c1nc(-c2nccn2C)nc2sc(-c3ccccc3)c(-c3ccccc3)c12 [Compound 2, N-(2-Methoxyethyl)-N-methyl-2-(1-methyl-1H-imidazol-2-yl)-5,6-diphenylthieno[2,3-d]pyrimidin-4-amine]	–	C (C = 46-75% inhibition)	B (B = 26-45% inhibition)	B (B = 26-45% inhibition)	–	–	C (C = 46-75% inhibition)	C (C = 46-75% inhibition)	–	–
COCCCNc1nc(-c2nccn2C)nc2sc(-c3ccccc3)c(-c3ccccc3)c12 [Compound 3, N-(3-Methoxypropyl)-2-(1-methyl-1H-imidazol-2-yl)-5,6-diphenylthieno[2,3-d]pyrimidin-4-amine]	A (A = 1-25% inhibition)	C (C = 46-75% inhibition)	C (C = 46-75% inhibition)	C (C = 46-75% inhibition)	A (A = 1-25% inhibition)	A (A = 1-25% inhibition)	C (C = 46-75% inhibition)	C (C = 46-75% inhibition)	–	–
COCCn1ccnc1-c1nc(N[C@H]2C[C@@H](OC)C2)c2c(-c3ccccc3)c(-c3ccn(C)n3)sc2n1 [Compound 13, N-((1s,3s)-3-methoxycyclobutyl)-2-(1-(2-methoxyethyl)-1H-imidazol-2-yl)-6-(1-methyl-1H-pyrazol-3-yl)-5-phenylthieno[2,3-d]pyrimidin-4-amine]	D (D = 76-100% inhibition)	D (D = 76-100% inhibition)	D (D = 76-100% inhibition)	D (D = 76-100% inhibition)	D (D = 76-100% inhibition)	D (D = 76-100% inhibition)	C (C = 46-75% inhibition)	C (C = 46-75% inhibition)	D (D = 76-100% inhibition)	D (D = 76-100% inhibition)
CO[C@@H]1CC[C@H](Nc2nc(-c3nccn3C)nc3sc(-c4ccn(C(C)C)n4)c(-c4ccccc4)c23)C1 [Compound 11, 6-(1-Isopropyl-1H-pyrazol-3-yl)-N-((1S,3R)-3-methoxycyclopentyl)-2-(1-methyl-1H-imidazol-2-yl)-5-phenylthieno[2,3-d]pyrimidin-4-amine]	D (D = 76-100% inhibition)	C (C = 46-75% inhibition)	B (B = 26-45% inhibition)	C (C = 46-75% inhibition)	C (C = 46-75% inhibition)	C (C = 46-75% inhibition)	C (C = 46-75% inhibition)	C (C = 46-75% inhibition)	B (B = 26-45% inhibition)	D (D = 76-100% inhibition)
COCCNc1nc(-c2nccn2C)nc2sc(-c3ccccc3)c(-c3ccccc3Cl)c12 [Compound 4, 5-(2-Chlorophenyl)-N-(2-methoxyethyl)-2-(1-methyl-1H-imidazol-2-yl)-6-phenylthieno[2,3-d]pyrimidin-4-amine]	–	A (A = 1-25% inhibition)	B (B = 26-45% inhibition)	B (B = 26-45% inhibition)	–	–	B (B = 26-45% inhibition)	B (B = 26-45% inhibition)	–	–
COCCNc1nc(-c2cn(C)cn2)nc2sc(-c3cccc(OC)c3Cl)c(-c3ccc(OC)cc3)c12 [Compound 8, 6-(2-Chloro-3-methoxyphenyl)-N-(2-methoxyethyl)-5-(4-methoxyphenyl)-2-(1-methyl-1H-imidazol-4-yl)thieno[2,3-d]pyrimidin-4-amine]	D (D = 76-100% inhibition)	C (C = 46-75% inhibition)	C (C = 46-75% inhibition)	B (B = 26-45% inhibition)	B (B = 26-45% inhibition)	B (B = 26-45% inhibition)	B (B = 26-45% inhibition)	B (B = 26-45% inhibition)	C (C = 46-75% inhibition)	D (D = 76-100% inhibition)
CO[C@H]1CC[C@@H](Nc2nc(-c3nccn3C)nc3sc(-c4ccn(C(C)C)n4)c(C)c23)C1 (racemic) [Compound 12, rac-6-(1-Isopropyl-1H-pyrazol-3-yl)-N-((1R,3S)-3-methoxycyclopentyl)-5-methyl-2-(1-methyl-1H-imidazol-2-yl)thieno[2,3-d]pyrimidin-4-amine]	D (D = 76-100% inhibition)	D (D = 76-100% inhibition)	D (D = 76-100% inhibition)	C (C = 46-75% inhibition)	C (C = 46-75% inhibition)	C (C = 46-75% inhibition)	C (C = 46-75% inhibition)	C (C = 46-75% inhibition)	D (D = 76-100% inhibition)	D (D = 76-100% inhibition)
